The values that follow come from ChEMBL document CHEMBL3507680, “University of Dundee, Gates Library screen for HepG2 cell viability”.

The data set in a line: Human HepG2 cell viability assay in 384 well format. Format: toxicity, cell-based. More on the design: dose 125 nL, time 70.5 hour; cytotoxicity at 70.5 h: concentration not given beside the values. Conditions: HepG2 cells, read-out: Inhibition.
Regarding `O=C(NC[C@@]1(COc2cnccn2)C[C@@H](O)[C@@H](O)C1)C1CCOCC1`, the cytotoxicity at 70.5 h was -1.95%. The result for `CN1CC[C@H]2OCC[C@@]2(C(=O)NCCc2ccccn2)C1` reads 21.6%; that for `CNc1oc(-c2ccc(S(=O)(=O)N(C)C)o2)nc1C#N`, 22.7%; that for `CC(=O)c1cccc(OCCCC(=O)N(C)CC(N)=O)c1`, -7.52%.

On to `CCC1(CC)CC(=O)N(CC(O)c2ccc(F)cc2)C1=O` (stereo not given), for which the cytotoxicity at 70.5 h was -9.84%. Then `COc1ccc(C(=O)Nc2cccc(SC)c2)c(OC)n1`, with 26.2%; and `CC(CNC(=O)c1cnc[nH]1)Oc1ccc(Cl)cc1` (stereo not given), with -22.4%; and `O=C1[C@H]2CN(Cc3ccc(F)cc3)C[C@H]2CN1c1cncnc1`, with 0.584%. Then `CCc1cc(CNC(=O)NCC(c2ccco2)N2CCCC2)[nH]n1` (stereo not given), with -3.15%; and `NC(=O)C1CCN(C(=O)NCCOc2ccc3c(c2)CCC3)CC1`, with -6.38%. Then `O=C(COCc1nc(-c2ccncc2)no1)N1CCCCC1`, with -6.97%; and `O=C(CCN1CCCCCC1c1ccco1)N1CCOCC1` (stereo not given), with -9.92%; and `Cn1ncc2c1NC(=O)CC2c1cc(Cl)ccc1F` (stereo not given), with 47.5%. On to `O=C(c1ccccn1)N1Cc2nccn2CC(CN2CCOCC2)C1` (stereo not given), for which the cytotoxicity at 70.5 h is -10.3%.

On to `COCCOCC(=O)N1C[C@@H]2CC[C@H](Oc3cccc(F)c3)[C@@H]2C1`, for which the cytotoxicity at 70.5 h is -3.05%. Then `c1ccc(CCCN2CC(n3cccn3)C2)cc1`, with -2.22%; and `O=c1c(S(=O)(=O)N2CCCCC2)cccn1Cc1cccnc1`, with -9.28%.

Take `CN(Cc1cccnc1)CC1CC12CCCC2` (stereo not given): the cytotoxicity at 70.5 h was -5.63%.

In the case of `CN(C)CCN1CCOCC2(CCCN(C(=O)c3ccoc3)C2)C1` (stereo not given), the cytotoxicity at 70.5 h turned out to be 1.59%.

For the compound `CN(C)C(=O)CN1CCC2(CC1)CN(S(C)(=O)=O)Cc1ccccc1O2`, the cytotoxicity at 70.5 h was -4.65%. The result for `CC1c2ncc(Cn3cncn3)n2CCN1CC1CCOCC1` (stereo not given) reads -5.6%. Then `Cc1ncnc(N2CCN(C(=O)C3CC4(CCNCC4)CN3)CC2)c1C` (stereo not given), with 13.5%; and `CCC(O)CN(CC(=O)Nc1cc(C)no1)c1ccccc1` (stereo not given), with -3.59%. Then `Cc1ccc(C)c2c(O)cc(CN3CCC(c4nncn4C)CC3)nc12`, with 0.0856%.

Turning to `Cc1noc2ncc(S(=O)(=O)Nc3cc(CC(C)(C)C)[nH]n3)cc12`, the cytotoxicity at 70.5 h is 3.8%. Turning to `CCCc1n[nH]c(C2CN(CCNC3CCCCC3)CCO2)n1` (stereo not given), the cytotoxicity at 70.5 h amounted to 9.34%. The result for `CCn1cc(CN2C[C@@H]3CCCN3C[C@H]2CCSC)cn1` reads -7.68%. Then `Cc1[nH]nc(CCC(=O)N2CCc3c(nc[nH]c3=O)C2)c1C`, with -15.9%. The result for `Cc1ccc(C(=O)N2CCc3ncnc(C)c3CC2)cc1F` reads 6.96%. With `O=C(CCOc1ccccc1)N1CCCC(n2cncn2)C1` (stereo not given), the cytotoxicity at 70.5 h came to 2.02%.

With `Cc1c(-c2n[nH]c3c2CN(CC2CCOC2)CC3)cccc1C(F)(F)F` (stereo not given), the cytotoxicity at 70.5 h is -6.06%.

`CC(C)NS(=O)(=O)c1ccccc1CNCc1cccc(O)c1`: the cytotoxicity at 70.5 h is -3.47%. Then `c1coc(-c2nc(CN3CCCC(Cn4cncn4)C3)cs2)c1` (stereo not given), with 20.4%; and `O=C(CC1CC1)NCc1cn2c(n1)CN(C(=O)C1CCOCC1)CC2`, with -4.63%. The result for `Cc1nnc(NC(=O)CN2CCc3nn(C)c(=O)cc3C2)s1` reads 10.8%; that for `COCCN1CC2(CCC1=O)CCN(Cc1cc(F)ccc1Cl)CC2`, 6.46%. Then `Cc1ccc(NC(=O)N2CCOC(C)C2)cc1Cl` (stereo not given), with -7.15%; and `Clc1ccc(C(CNCc2ccncc2)n2cccn2)cc1` (stereo not given), with -1.54%. On to `Cc1ccc(-c2ccccc2CC2(C(=O)NC(C)C)CCCNC2)cc1` (stereo not given), for which the cytotoxicity at 70.5 h is -3.27%. The result for `O=c1ccc2c(n1CCN1CCCC1)CCN(c1ncccn1)CC2` reads -4.06%; that for `O=C(CNCCn1cccn1)NCC1(c2ccccc2)CCOCC1`, -7.33%. Then `Cn1ccc(C(=O)NCCOc2ccc3c(c2)CCC3)cc1=O`, with -3.77%. The result for `COCCN(C)CCN1CC2(CCN(C(=O)C3CCOC3)CC2)OC1=O` (stereo not given) reads 17.4%; that for `Cc1cc(C)nc(N2CCC(OCCN3CCCCC3)C2)n1` (stereo not given), 8.57%.

Consider `N#Cc1ccc(CN2C[C@@H](F)[C@@H](OCc3nc4cnccc4[nH]3)C2)cc1`, for which the cytotoxicity at 70.5 h is -1.95%. The result for `Cc1ncc(CN2CCC(c3nc4cc(Cl)ccc4o3)CC2)s1` reads 22.3%; that for `COCC1CC2(CCN(Cc3nc(C)cs3)CC2)CO1` (stereo not given), -8.71%.

As to `O=C(Cn1cccn1)N(CCO)CCSc1ccc(Cl)cc1`, the cytotoxicity at 70.5 h was -11.6%. Consider `CCCNCc1cc2c(C)cc(C)cc2n2c(=O)n(C)nc12`, for which the cytotoxicity at 70.5 h is -8.78%. The result for `CS(=O)(=O)N1CCCCCC1C1CCN(Cc2nc(C3CC3)no2)CC1` (stereo not given) reads 5.88%; that for `COCC(=O)N1C[C@H]2CNC[C@@]2(C(=O)NCc2snnc2C)C1`, -6.27%. Then `Cc1nc(CNC(=O)C(C)Oc2ccccc2F)no1` (stereo not given), with -5.02%. The result for `Cn1cccc1C(=O)N1CCc2c(CNS(C)(=O)=O)cncc2C1` reads -18.4%; that for `Cc1nc(C)n(CC(C)C(=O)N2CCC(NS(C)(=O)=O)CC2)n1` (stereo not given), 34.2%.

As to `CCN1CCCC1CNCc1cc2ccccc2[nH]c1=O` (stereo not given), the cytotoxicity at 70.5 h was -5.02%.

With `COCCOc1ccccc1C(=O)N1CCCCC1c1nccs1` (stereo not given), the cytotoxicity at 70.5 h was determined as 50.2%. Then `CC(NC(=O)Nc1ccncc1)c1ccc2c(c1)CC(=O)N2` (stereo not given), with -7.01%; and `Cc1cccc(CN2CC[C@H]3CO[C@H](CNC(=O)N(C)C)[C@H]3C2)c1`, with -3.19%. The result for `COc1cc(CNc2ccc(C)c(Cl)c2)ccc1OCC(N)=O` reads -11.9%. On to `CC(C)Nc1nc(O)cc(C2CC(=O)N(Cc3ccccc3)C2)n1` (stereo not given), for which the cytotoxicity at 70.5 h was -7.01%. The result for `O=C(Cc1ccc(F)c(Br)c1)N1CCN(CCO)CC1` reads -3.28%; that for `CO[C@@H]1CCN(Cc2nccs2)C[C@@H]1Cc1cccc(C)c1`, -3.84%.

In the case of `COc1ccccc1CCNC(=O)CN1CCCC1c1noc(C)n1` (stereo not given), the cytotoxicity at 70.5 h was -3.07%. Then `O=C(N[C@H]1CN[C@H]2CCCO[C@H]21)c1ccno1`, with -4.14%; and `O=C(Cc1c[nH]c(=O)[nH]c1=O)N1CCCCC1CCc1ccccc1` (stereo not given), with 3.58%. The result for `O=C(c1cccnc1)N1CCC2(CC1)COCCN(c1ncccn1)C2` reads -9.03%. Then `Cc1nnc(CN2CCC(Oc3ccc(C)c(C)c3)CC2)o1`, with -4.89%; and `Cc1cccnc1CC(C)N(C)C(=O)c1ccoc1C` (stereo not given), with 5.46%; and `CCS(=O)(=O)NCc1cc(Br)c(OC)c(OC)c1`, with -8.56%. Regarding `CN1CCC(Oc2ccc(NC(=O)c3cccc(Cl)c3)cc2)CC1`, the cytotoxicity at 70.5 h was -3.56%.

On to `CN(C)C(=O)N1CCN(C(=O)c2ccccc2)CC2(CNC(=O)C2)C1` (stereo not given), for which the cytotoxicity at 70.5 h is -1.67%. Then `O=C(NCCn1ccc(-c2ccccn2)n1)C1CC1`, with -4.52%; and `Cc1cc(NC(=O)N2CCN(C)CC2C)n(C)n1` (stereo not given), with -6.62%. Then `O=C(c1ccno1)N1CCc2ncnc(-c3ccncc3)c2CC1`, with 1.37%; and `CCc1ccc(S(=O)(=O)N2CCC3(CC(C(=O)NC)=NO3)C2)cc1` (stereo not given), with -10.7%; and `CCC(C)N(Cc1cccnc1)C(=O)CCSC` (stereo not given), with -8.8%. Turning to `COc1ccc(NC(C)C(=O)N2CCCC2)cn1` (stereo not given), the cytotoxicity at 70.5 h was -1.03%. The result for `CN(C)c1cccc(C(=O)NCC2(O)CCOCC2)c1` reads -0.873%; that for `NC(=O)C1CCN(C(=O)NCc2csc(Br)c2)CC1`, -7.32%; that for `CN(Cc1ccccc1)c1cnn(CC2CCCCO2)c(=O)c1` (stereo not given), -4.54%. The result for `O=C(NC1CC1)[C@@H]1CCO[C@@H]2CCN(Cc3ccsc3)C[C@H]21` reads -2.46%; that for `Cc1nn(C)c2c(=O)n(Cc3ccc(F)cc3)nnc12`, -7.56%; that for `Cc1ccc(CN2CC3(CCN(C(=O)c4cscn4)C3)C2)s1`, -7.12%. The result for `O=C(C1NCCc2[nH]cnc21)N1CCC2(C=Cc3ccccc32)CC1` (stereo not given) reads -7.07%; that for `N#Cc1ccc(CN2CCN(Cc3ccncc3Cl)CC2=O)cc1`, 2.38%. With `Cc1ccc(C(=O)NCc2ccnc(C3CCCOC3)n2)s1` (stereo not given), the cytotoxicity at 70.5 h turned out to be 10.5%.

Turning to `Clc1ccccc1CCN1CCN(c2ccc3nncn3n2)CC1`, the cytotoxicity at 70.5 h was -16.3%. The result for `Cc1cnn(CC2CN(CC(=O)N(C)c3nccs3)CCO2)c1` (stereo not given) reads -2.03%. The result for `Oc1cccc2ccc(CN3CCC4(CCNCC4)C3)nc12` reads -4.99%. Then `CC(=O)Nc1ccc(CN2CCCC(c3cc4ncccc4[nH]3)C2)cc1` (stereo not given), with -5.47%; and `CC(C(=O)N1CCCC1)N1CCCN(C(=O)Oc2ccccc2)CC1` (stereo not given), with -10.6%; and `CC(=O)Nc1nc2c(s1)C(C)(C)Nc1ccccc1S2`, with -2.23%. As for `c1cncc(C(Cn2cnnc2)N2CCOCC2)c1` (stereo not given), the cytotoxicity at 70.5 h worked out at 2.14%. Then `O=C(NCCNc1ncccn1)c1ccc(Cl)s1`, with -5.84%; and `CC(C)c1cc(NCC2(CO)CCC2)ncn1`, with 17.4%. The result for `CCOC(=O)N1CCN(C(=O)C2Cc3ccccc3CN2C)CC1` (stereo not given) reads 2.75%. `Cn1cc(CN2CCCC3(CCN(C(=O)c4ccoc4)C3)C2)cn1` (stereo not given): the cytotoxicity at 70.5 h was -11%. Then `CCc1ccc(C(=O)N2CCN(c3nc(C)cc(OC)n3)CC2)o1`, with 4.76%. As for `Cc1cc(C)nc(C2CCCN2C(=O)c2cnco2)n1` (stereo not given), the cytotoxicity at 70.5 h came out at 33.6%.

As for `CC(C)CN1CC(c2nc(-c3ccsc3)c[nH]2)CC1=O` (stereo not given), the cytotoxicity at 70.5 h is -2.45%.
